Reference: patent US20070128217A1 (priority 2003, published 2007)

Assays:
[1] = test system: rabbit serum obtained by immunizing a rabbit with the SARS-CoV strain Frankfurt 1; assay type: binding; parameters: Binding of a rabbit serum to linear peptides / Binding of a rabbit serum to looped peptides / Rabbit serum linear peptides / Rabbit serum looped peptides / Binding of a rabbit serum to linear peptides of protein N of SARS-CoV Urbani (Rabbit serum linear peptides) / Binding of a rabbit serum to looped/cyclic peptides of protein N of SARS-CoV Urbani (Rabbit serum looped peptides): unit not given here
[2] = test system: control sera (pooled serum of ten healthy LUMC hospital workers; commercial negative donor pooled serum from the Dutch bloodbank); assay type: binding, human; parameters: Binding of Control serum LUMC to linear peptides / Binding of Control serum Blood-bank to linear peptides / Binding of Control serum LUMC to looped peptides / Binding of Control Serum Blood-Bank to Looped peptides / Binding of Control serum LUMC to linear peptides of the protein M of SARS-CoV Urbani / Binding of Control serum Blood-bank to linear peptides of the protein M of SARS-CoV Urbani / Binding of Control serum LUMC to looped peptides of the protein M of SARS-CoV Urbani / Binding of Control Serum Blood-Bank to Looped peptides of the protein M of SARS-CoV Urbani: unit not given here
[3] = test system: antibodies in sera from SARS patients (sera 1a, 1b, 2, 6, 37, 62, London, SARS-yellow, SARS-green); assay type: binding, human; parameters: Binding of serum 6 to linear peptides of protein X1 of SARS-CoV Urbani / Binding of serum 37 to linear peptides of protein X1 of SARS-CoV Urbani / Binding of serum 6 to looped/cyclic peptide (PEPSCAN-ELISA) / Binding of serum 37 to looped/cyclic peptide (PEPSCAN-ELISA) / Binding of serum 37 to looped/cyclic peptides of protein X1 of SARS-CoV Urbani / Binding of serum 6 to linear peptides of protein X2 / Binding of serum 37 to linear peptides of protein X2 / Binding of serum 37 to looped/cyclic peptides of protein X2 of SARS-CoV Urbani / Binding of serum 6 to linear peptides of protein M of SARS-CoV Urbani / Binding of serum 37 to linear peptides of protein M of SARS-CoV Urbani / Binding of serum 6 to looped/cyclic peptides of protein M of SARS-CoV Urbani / Binding of serum 37 to looped/cyclic peptides of protein M of SARS-CoV Urbani / Binding of serum 6 to linear peptides of protein X3 of SARS-CoV Urbani / Binding of serum 37 to linear peptides of protein X3 of SARS-CoV Urbani / Binding of serum 37 to looped/cyclic peptides of protein X3 of SARS-CoV Urbani / Binding of serum 6 to linear peptides of protein X4 of SARS-CoV Urbani / Binding of serum 37 to linear peptides of protein X4 of SARS-CoV Urbani / Binding of serum 37 to looped/cyclic peptides of protein X4 of SARS-CoV Urbani / Binding of serum 6 to linear peptides of protein X5 of SARS-CoV Urbani / Binding of serum 37 to linear peptides of protein X5 of SARS-CoV Urbani / Binding of serum 37 to looped/cyclic peptides of protein X5 of SARS-CoV Urbani / Binding of serum 6 to linear peptides of protein N of SARS-CoV Urbani / Binding of serum 37 to linear peptides of protein N of SARS-CoV Urbani / Binding of serum 6 to linear peptide (PEPSCAN-ELISA) / Binding of serum 1a to looped/cyclic peptides of protein N of SARS-CoV Urbani / Binding of serum 1b to looped/cyclic peptides of protein N of SARS-CoV Urbani / Binding of serum 2 to looped/cyclic peptides of protein N of SARS-CoV Urbani / Binding of serum 6 to looped/cyclic peptides of protein N of SARS-CoV Urbani / Binding of serum 37 to looped/cyclic peptides of protein N of SARS-CoV Urbani / Binding of serum 62 to looped/cyclic peptides of protein N of SARS-CoV Urbani / Binding of serum London to looped/cyclic peptides of protein N of SARS-CoV Urbani / Binding of serum SARS-green to looped/cyclic peptides of protein N of SARS-CoV Urbani: unit not given here

Sequence | Binding of Control Serum Blood-Bank to Looped peptides [2] | Binding of Control serum Blood-bank to linear peptides [2] | Binding of Control serum LUMC to linear peptides [2] | Binding of Control serum LUMC to looped peptides [2] | Binding of a rabbit serum to linear peptides [1] | Binding of a rabbit serum to looped peptides [1] | Binding of serum 1a to linear peptides of protein X1 of SARS-CoV Urbani [3] | Binding of serum 1a to looped/cyclic peptide (PEPSCAN-ELISA) [3] | Binding of serum 1b to linear peptides of protein X1 of SARS-CoV Urbani [3] | Binding of serum 1b to looped/cyclic peptide (PEPSCAN-ELISA) [3] | Binding of serum 2 to linear peptides of protein X1 of SARS-CoV Urbani [3] | Binding of serum 2 to looped/cyclic peptide (PEPSCAN-ELISA) [3] | Binding of serum 6 to linear peptides of protein X1 of SARS-CoV Urbani [3] | Binding of serum 6 to looped/cyclic peptide (PEPSCAN-ELISA) [3] | Binding of serum 37 to linear peptides of protein X1 of SARS-CoV Urbani [3] | Binding of serum 37 to looped/cyclic peptide (PEPSCAN-ELISA) [3] | Binding of serum 62 to linear peptides of protein X1 of SARS-CoV Urbani [3] | Binding of serum London to linear peptides of protein X1 of SARS-CoV Urbani [3] | Binding of serum SARS-green to linear peptides of protein X1 of SARS-CoV Urbani [3] | Binding of serum SARS-yellow to linear peptides of protein X1 of SARS-CoV Urbani [3] | other results
GTRHTYQLRARSVSP | 0.7 | 0.8 | 0.6 | 0.8 | – | – | – | – | – | – | – | – | – | – | – | – | – | – | – | – | Recognition of the peptide by the rabbit serum [1]: recognized; Binding of serum 1a to linear peptides of protein X4 of SARS-CoV Urbani [3]: 0.7; Binding of serum 1a to looped/cyclic peptides of protein X4 of SARS-CoV Urbani [3]: 0.8; Binding of serum 1b to linear peptides of protein X4 of SARS-CoV Urbani [3]: 0.6; Binding of serum 1b to looped/cyclic peptides of protein X4 of SARS-CoV Urbani [3]: 0.5; Binding of serum 2 to linear peptides of protein X4 of SARS-CoV Urbani [3]: 0.8; Binding of serum 2 to looped/cyclic peptides of protein X4 of SARS-CoV Urbani [3]: 1.0; Binding of serum 6 to linear peptides of protein X4 of SARS-CoV Urbani [3]: 0.6; Binding of serum 6 to looped/cyclic peptides of protein X4 of SARS-CoV Urbani [3]: 0.6; Binding of serum 37 to linear peptides of protein X4 of SARS-CoV Urbani [3]: 0.8; Binding of serum 37 to looped/cyclic peptides of protein X4 of SARS-CoV Urbani [3]: 0.7; Binding of serum 62 to linear peptides of protein X4 of SARS-CoV Urbani [3]: 0.8; Binding of serum 62 to looped/cyclic peptides of protein X4 of SARS-CoV Urbani [3]: 0.8; Binding of serum London to linear peptides of protein X4 of SARS-CoV Urbani [3]: 0.8; Binding of serum London to looped/cyclic peptides of protein X4 of SARS-CoV Urbani [3]: 0.3; Binding of serum SARS-green to linear peptides of protein X4 of SARS-CoV Urbani [3]: 0.6; Binding of serum SARS-green to looped/cyclic peptides of protein X4 of SARS-CoV Urbani [3]: 0.5; Binding of serum SARS-yellow to linear peptides of protein X4 of SARS-CoV Urbani [3]: 0.8; Binding of serum SARS-yellow to looped/cyclic peptides of protein X4 of SARS-CoV Urbani [3]: 0.7
GVAFLAVFQSATKII | 0.7 | 0.5 | 0.7 | 0.7 | 0.9 | 0.6 | 0.7 | 0.6 | 0.6 | 0.4 | 0.8 | 0.6 | 0.7 | 0.5 | 0.6 | 0.6 | 0.6 | 0.2 | 0.3 | 0.2 | Binding of serum 62 to looped/cyclic peptide (PEPSCAN-ELISA) [3]: 0.6; Binding of serum London to looped/cyclic peptide (PEPSCAN-ELISA) [3]: 0.4; Binding of serum SARS-green to looped/cyclic peptide (PEPSCAN-ELISA) [3]: 0.3; Binding of serum SARS-yellow to looped/cyclic peptide (PEPSCAN-ELISA) [3]: 0.3
GWLVIGVAFLAVFQS | 0.8 | 0.5 | 0.6 | 0.7 | 0.8 | 0.6 | 0.7 | 0.7 | 0.6 | 0.5 | 0.5 | 0.7 | 0.5 | 0.4 | 0.6 | 0.6 | 0.6 | 0.3 | 0.2 | 0.5 | Binding of serum 62 to looped/cyclic peptide (PEPSCAN-ELISA) [3]: 0.8; Binding of serum London to looped/cyclic peptide (PEPSCAN-ELISA) [3]: 0.3; Binding of serum SARS-green to looped/cyclic peptide (PEPSCAN-ELISA) [3]: 0.4; Binding of serum SARS-yellow to looped/cyclic peptide (PEPSCAN-ELISA) [3]: 0.6
GYFTEVYYQLESTQI | 0.6 | 0.4 | 0.4 | 0.7 | 0.1 | 0.5 | 0.7 | – | 0.5 | – | 0.5 | – | 0.4 | – | 0.6 | – | 0.5 | 0.3 | 0.3 | 0.4 | Binding of serum 1a to looped/cyclic peptides of protein X1 of SARS-CoV Urbani [3]: 0.6; Binding of serum 1b to looped/cyclic peptides of protein X1 of SARS-CoV Urbani [3]: 0.5; Binding of serum 2 to looped/cyclic peptides of protein X1 of SARS-CoV Urbani [3]: 0.5; Binding of serum 6 to looped/cyclic peptides of protein X1 of SARS-CoV Urbani [3]: 0.4; Binding of serum 37 to looped/cyclic peptides of protein X1 of SARS-CoV Urbani [3]: 0.6; Binding of serum 62 to looped/cyclic peptides of protein X1 of SARS-CoV Urbani [3]: 0.6; Binding of serum London to looped/cyclic peptides of protein X1 of SARS-CoV Urbani [3]: 0.2; Binding of serum SARS-green to looped/cyclic peptides of protein X1 of SARS-CoV Urbani [3]: 0.4; Binding of serum SARS-yellow to looped/cyclic peptides of protein X1 of SARS-CoV Urbani [3]: 0.4
